# Experimental data taken from PMC10635480, “An engineered thermally tolerant apo-cytochrome scaffold for metal-less incorporation of heme derivative” (PLOS ONE, 2023).
# Key:
# [1] = target: T1, rC552 C14A (cytochrome c552, apo-form) (Thermus thermophilus, UniProt Q5SME3, C31A/M86F); format: binding
# T1 construct: gene cycA; recombinant, E. coli BL21(DE3), pET-rC552 C14A; no tag mentioned; heme-free apo-form isolated by butyl-Sepharose
# [2] = target: T2, rC552 C14A (cytochrome c552, apo-form) (Thermus thermophilus, UniProt Q5SME3, C31A); test: time-dependent UV-Vis reconstitution; format: binding; conditions: equimolar 5 uM, 25 °C
# T2 construct: gene cycA; recombinant, E. coli BL21(DE3), pET-rC552 C14A; no tag mentioned; heme-free apo-form isolated by butyl-Sepharose
# T2 sequence (Q5SME3 18-148 C31A): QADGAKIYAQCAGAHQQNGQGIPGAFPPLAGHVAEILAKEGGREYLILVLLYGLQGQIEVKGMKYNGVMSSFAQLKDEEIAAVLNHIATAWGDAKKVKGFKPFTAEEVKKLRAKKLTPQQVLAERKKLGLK
# T1 sequence (Q5SME3 18-148 C31A/M86F): as the sequence (Q5SME3 18-148 C31A) above, with M69F counted along it
smiles,measurement,setting,value
C=CC1=C(C)c2cc3[nH]c(cc4nc(cc5[nH]c(cc1n2)c(C)c5CCC(=O)O)C(CCC(=O)O)=C4C)c(C)c3C=C [protoporphyrin IX (metal-free)],Tm of reconstituted protein (not dTm),[1],58 °C
same,time-dependent UV-Vis reconstitution,[2],Time-dependent UV–Vis spectra show a rather slow reconstitution process while mixing equal concentrations
